# Reference: ChEMBL document CHEMBL4321867, “Optimization of LpxC Inhibitor Lead Compounds Focusing on Efficacy and Formulation for High Dose Intravenous Administration” (J Med Chem, 2020)
# Assays:
# Acinetobacter baumannii = experiment: microbe, parasite or virus in culture
# physchem [1] = details: 5% mannitol/water, pH 8.2
# Pseudomonas aeruginosa [2] = experiment: microbe, parasite or virus in culture; details: ATCC 27853
# Escherichia coli [3] = experiment: microbe, parasite or virus in culture
# in vitro [4] = details: rat, liver microsomes
# Proteus mirabilis = experiment: microbe, parasite or virus in culture
# Morganella morganii = experiment: microbe, parasite or virus in culture
# Klebsiella oxytoca = experiment: microbe, parasite or virus in culture
# physchem [5] = details: buffer, pH 7
# Serratia marcescens = experiment: microbe, parasite or virus in culture
# in vitro [6] = details: rat, plasma
# Burkholderia cepacia = experiment: microbe, parasite or virus in culture
# in vitro [7] = details: human, hepatocytes
# [8] = test system: Stenotrophomonas maltophilia; experiment: microbe, parasite or virus in culture
# Klebsiella pneumoniae [9] = experiment: microbe, parasite or virus in culture
# Haemophilus influenzae = experiment: microbe, parasite or virus in culture
# Pseudomonas aeruginosa [10] = experiment: microbe, parasite or virus in culture
# Escherichia coli [11] = experiment: microbe, parasite or virus in culture; details: ATCC 25922
# Citrobacter freundii = experiment: microbe, parasite or virus in culture
# physchem [12] = details: n-octanol/phosphate buffer, pH 7.4
# in vitro [13] = details: rat, hepatocytes
# physchem [14] = details: buffer, pH 9
# Klebsiella pneumoniae [15] = experiment: microbe, parasite or virus in culture; details: T6474
# in vitro [16] = details: human, liver microsomes
# Enterobacter cloacae = experiment: microbe, parasite or virus in culture
# Klebsiella aerogenes = experiment: microbe, parasite or virus in culture
# physchem [17] = details: buffer, pH 4
# in vivo [18] = details: Wistar, rat, iv, 10 mg/kg
# Moraxella catarrhalis = experiment: microbe, parasite or virus in culture
# in vivo [19] = details: mouse, sc, 150 mg/kg
compound,measurement,setting,value
C[C@@](CCN1Cc2cc(C#CC#C[C@H]3C[C@@H]3[C@@H](O)CO)cn2C1=O)(C(=O)NO)S(C)(=O)=O,MIC90,Acinetobacter baumannii,> 16 µg/mL
same,solubility,physchem [1],25000 µg/mL
same,MIC,Pseudomonas aeruginosa [2],1 µg/mL
same,MIC90,Escherichia coli [3],2 µg/mL
same,microsomal CLint at 1 µM,in vitro [4],< 10 µL/min/mg
same,MIC90,Proteus mirabilis,1 µg/mL
same,MIC90,Morganella morganii,1 µg/mL
same,MIC90,Klebsiella oxytoca,4 µg/mL
same,solubility at 24 h,physchem [5],> 780 µg/mL
same,MIC90,Serratia marcescens,0.5 µg/mL
same,fraction unbound at 1 µM,in vitro [6],0.018
same,MIC90,Burkholderia cepacia,8 µg/mL
same,hepatocyte CLint at 1 µM,in vitro [7],< 2 µL/min/1e6 cells
same,MIC90,[8],> 16 µg/mL
same,MIC90,Klebsiella pneumoniae [9],4 µg/mL
same,MIC90,Haemophilus influenzae,≤ 0.03 µg/mL
same,MIC90,Pseudomonas aeruginosa [10],2 µg/mL
same,MIC,Escherichia coli [11],0.5 µg/mL
same,MIC90,Citrobacter freundii,1 µg/mL
same,logD,physchem [12],0.5
same,hepatocyte CLint at 1 µM,in vitro [13],10.2 µL/min/1e6 cells
same,solubility at 24 h,physchem [14],> 780 µg/mL
same,MIC,Klebsiella pneumoniae [15],1 µg/mL
same,microsomal CLint at 1 µM,in vitro [16],< 10 µL/min/mg
same,MIC90,Enterobacter cloacae,4 µg/mL
same,MIC90,Klebsiella aerogenes,2 µg/mL
same,solubility at 24 h,physchem [17],> 780 µg/mL
same,clearance at 24 h,in vivo [18],3.1 mL/min/kg
same,MIC90,Moraxella catarrhalis,> 16 µg/mL
same,AUC(0-t) at 24 h,in vivo [19],347 µg·h/mL
